Source: US20100273876A1, “ANTIBACTERIAL FORMULATION COMPRISING A DIALKYL SULPHOSUCCINATE AND A CARBANILIDE ANTIBACTERIAL AGENT” (priority 2007, published 2010)

Assays:
Por. gingivalis 381 = test: Biofilm disruption assay on hydroxyapatite discs; format: cell-based, Porphyromonas gingivalis; details: Por. gingivalis 381 biofilm, DOSS 0.5% (w/v), CHX 0.2% (w/v)
Description: This assay was designed to determine quantitatively the relative potency of a test compound to disrupt (effectively kill) biofilms formed by a test organism on hydroxyapatite (HA) discs.
Biofilms were formed on sterile dense ceramic HA discs 7 mm diameter x 1.8 mm thick (Clarkson Chromatography) by placing the discs in the appropriate liquid media (as described above) inoculated with the test organism (0.5×10^8 cfu/ml). The HA discs were then incubated at 37° C. for ˜48 h in a 5% CO2 atmosphere (for Strep. mutans ATCC 25175) or ˜96 h under anaerobic conditions (for Por. gingivalis 381). Following the incubation period the supernatant was removed from the wells containing the HA discs and the discs were washed×3 with fresh media to ensure all planktonic cells were removed. The HA discs were then transferred to sterile bijoux bottles containing 1 ml of phosphate buffered saline (PBS) plus test compound(s) at the required concentration. After a set time period (usually 2 and/or 5 min), the HA disc was transferred to another sterile bijoux containing 1 ml of fresh growth media. Adherent cells were then harvested by vigorous vortexing for 2 minutes. A sample was then taken, serially diluted 10-fold in fresh growth media and inoculated onto agar plates in triplicate. Untreated HA discs, and HA discs added to PBS containing only the solvents used to dissolve the test compound(s), acted as controls.
The plates were then incubated as described above and subsequently examined visually for growth. Colonies were counted at an appropriate serial dilution (5-50 individual colonies visible) with the aid of a colony counter. These measurements were then converted to numbers of colony forming units (cfu), using the formula: cfu/ml=number of colonies×serial dilution factor×100 (as only a 10 μl sample was taken).
These cfu values were then converted into log10 values and plotted graphically against time of sample removal.
At each time point, samples were assessed in triplicate; the final cfu/ml value was an average (mean) of the three readings.
Biofilm disruption assays, as described above, were carried out using DOSS as the test compound and chlorhexidine (CHX) as a positive control. For these experiments, the DOSS was tested at 0.5% w/v against Por. gingivalis and 1% w/v against Strep. mutans. The ahlorhexidine was tested at a concentration of 0.2% w/v against both micro-organisms. The DOSS was dissolved in ethanol and the chlorhexidine in distilled water. All the experiments were conducted in triplicate.

[1] = test system: Por. gingivalis NCTC 11834; test: MIC assay, liquid medium; format: cell-based, Porphyromonas gingivalis
Description: The P. gingivalis strains were cultured and maintained on Wilkins-Chalgren Anaerobe Medium (agar and broth) at pH 7.0; all cultures were incubated anaerobically at 37° C. for 5-7 days.
This is a standard international method for quantitatively assessing the antimicrobial activity of a compound in a liquid medium. The method used a sterile 96-well microtitre plate, capable of holding about 200 μl of liquid per well. The wells contained liquid culture medium and ranges of decreasing concentrations of the relevant test compound in doubling dilutions (eg, 1000, 500, 250, 125 . . . μg/ml, etc. down to 0.49 μg/ml). The culture media were as described above.
The wells were inoculated with a liquid suspension of freshly grown micro-organism and incubated under the conditions described above. After incubation, the microtitre plate was examined visually (with the aid of a light box) for cloudiness in each well, which would indicate microbial growth. The MIC value was recorded as the lowest concentration of test compound required to inhibit microbial growth, ie, the lowest concentration for which the liquid in the well remained clear.
The assays included both negative (culture medium with no micro-organisms) and positive (culture medium plus diluting solvent plus micro-organism) controls.

Substance: dioctyl sodium sulphosuccinate [DOSS]
- Viable cell counts (Por. gingivalis 381; 0 min): 7.53 log10 cfu/ml
- Viable cell counts (Por. gingivalis 381; 2 min): 5.08 log10 cfu/ml
- Viable cell counts (Por. gingivalis 381; 5 min): 3.34 log10 cfu/ml
- MIC [1]: <0.49 µg/mL
